Test results as given in patent publication USRE48461E1, “Modulation of androgen receptor expression” (Ionis Pharmaceuticals, Inc., priority 2012, dated 2021).
Oligonucleotides are written 5' to 3', each unit as a sugar letter and its base; * is a phosphorothioate linkage, no mark a phosphodiester; rarer units and linkages stand in square brackets, end groups in braces. Plain capitals give the bases only. k = constrained ethyl (cEt); [5mC] = 5-methylcytosine; d = 2'-deoxy (DNA)

Tests used:
Format in all cases: cell-based, human
[1] = test system: total AR mRNA; experiment: Total (full-length) AR mRNA in C4-2B MR cells, free uptake; settings: 24 hrs; for Percent inhibition of full-length AR mRNA in C4-2B MR cells: free uptake
Method in brief: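 Cells grown in RPMI1640 with 10% FBS received antisense oligonucleotides at 0.04, 0.20, 1.00 and 5.00 μM in the medium by free uptake, no transfection agent. After 24 hrs, total AR mRNA quantified by real-time qPCR with primer probe set RTS3559.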

[2] = test system: TMPRSS2 mRNA; experiment: TMPRSS2 expression in C4-2 cells; settings: 48 hrs; for Percent inhibition of TMPRSS2 expression: C4-2 cells, CSS + DHT medium
Method: (§1) Cells were plated at 1,000 cells per well. […] After an incubation period of 48 hrs, RNA levels of AR, PSA and TMPRSS2 were measured.
(§2) Cells were plated at 2,000 cells per well and cultured in CSS media with 1 nM DHT. […] After an incubation period of 48 hrs, RNA levels of AR, PSA and TMPRSS2 were measured.

[3] = test system: TMPRSS2 mRNA; experiment: Time-course TMPRSS2 expression in C4-2B cells
Method in brief: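 C4-2B cells at 1,000/well in complete medium, treated with antisense oligonucleotide; ISIS 549148 as negative control. PSA and TMPRSS2 mRNA measured after 8, 24 and 48 h, given as percent inhibition relative to non-treated cells.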

[4] = test system: AR mRNA; experiment: AR RNA expression in C4-2 cells (complete, CSS+DHT medium); settings: 48 hrs; for Percent expression of AR: C4-2 cells, CSS + DHT medium
Method: as §1, §2

[5] = test system: C4-2B cells; experiment: C4-2B cell proliferation (complete or CSS+DHT medium; Example 30); settings: 5 days; for Proliferation (% untreated control): C4-2B cells
Method: After a treatment period of 5 days in complete medium or CSS+1 nM DHT medium, the proliferative capacity of the cancer cells was measured with using CellTiter 96® AQueous One or CellTiter-Glo® Solution Cell Proliferation kit (Promega), following the manufacturer's instructions.

[6] = test system: AR mRNA; experiment: Time-course AR mRNA expression in C4-2B cells (8, 24, 48 hours); settings: for Percent expression of AR compared to the control group in 8 hours / Percent expression of AR compared to the control group in 24 hours / Percent expression of AR compared to the control group in 48 hours: C4-2B cells
Method: C4-2B cells were plated at 1,000 cells per well in complete medium. […] After a treatment period of 8 hours, 24 hours, and 48 hours, AR expression was measured with primer probe set hAR-LTS00943.

[7] = test system: 22RV1 cells; experiment: 22RV1 apoptosis (Caspase-glo 3/7); settings: 72 hours; for Apoptosis (% untreated control): 22RV1 cells
Method: After a treatment period of 72 hours in complete medium or CSS+DHT medium, apoptosis of the cancer cells was measured with Caspase-glo 3/7 assay kit (Promega). Results are presented in Tables 131 and 132 as percent apoptosis of the cells, relative to non-treated cells.

[8] = test system: PSA mRNA; experiment: PSA expression in C4-2B cells (Example 30); settings: 48 hrs
Method in brief: (§3)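 C4-2B cells were plated at 1,000 cells per well in complete medium, or at 2,000 cells per well in CSS medium with 1 nM DHT. ISIS 549148 served as the negative control. AR, PSA and TMPRSS2 RNA levels were measured after 48 hrs.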

[9] = test system: AR mRNA; experiment: AR RNA expression in C4-2B cells (complete, CSS+DHT medium; Example 30); settings: 48 hrs
Method in brief: as §3

With “549372 (kA*kA*kG*dT*dT*dG*dT*dA*dG*dT*dA*dG*dT*k[5mC]*kG*k[5mC]) [compound 549372]” the “Percent inhibition of full-length AR mRNA in C4-2B MR cells” value (“Percent inhibition … in C4-2B MR cells” below) ([1]; 0.04 μM) was 35%, the “Percent inhibition … in C4-2B MR cells” value ([1]; 0.20 μM) was 47% and the “Percent inhibition … in C4-2B MR cells” value ([1]; 1.00 μM) was 88%. For the same substance, the “Percent inhibition … in C4-2B MR cells” value ([1]; 5.00 μM) was 91%.
In the case of “549458 (kG*kT*kT*dG*dA*dT*dT*dT*dA*dA*dT*dG*dG*kT*kT*kG) [compound 549458]”, the “Percent inhibition … in C4-2B MR cells” value ([1]; 0.04 μM) is reported as 41%, the “Percent inhibition … in C4-2B MR cells” value ([1]; 0.20 μM) is reported as 78% and the “Percent inhibition … in C4-2B MR cells” value ([1]; 1.00 μM) is reported as 94%. The “Percent inhibition … in C4-2B MR cells” value ([1]; 5.00 μM) was 97%.
With “GTTGATTTAATGGTTG (all phosphorothioate, sugars by position not given here; further chemistry not fully specified) [ISIS 549458]” the “total AR transcript levels” value ([1]; C4-2B MR cells, 0.04-5.00 μM free uptake) was “reduced total AR transcript levels in a dose dependent manner more extensively than treatment with ISIS 554221”.
With “TTGATTTAATGGTTGC [ISIS 560131] (MOE and (S)-cEt gapmer chemistry, further chemistry not given here) [targets intron 1]” the “Percent inhibition of TMPRSS2 expression” value ([2]; 0.04 μM) was 10%, the “Percent inhibition of TMPRSS2 expression” value ([2]; 0.2 μM) was 17% and the “Percent inhibition of TMPRSS2 expression” value ([2]; 1 μM) was 51%. The “Percent inhibition of TMPRSS2 expression” value ([2]; 5.0 μM) was 78%, the “Percent inhibition of TMPRSS2 expression in C4-2 cells cultured in complete medium” value (from here on “Percent inhibition … in complete medium”) ([2]; 0.04 μM) was 29% and the “Percent inhibition … in complete medium” value ([2]; 0.2 μM) was 62%. For the same substance, the “Percent inhibition … in complete medium” value ([2]; 1 μM) was 76%, the “Percent inhibition … in complete medium” value ([2]; 5.0 μM) was 71% and the “Percent inhibition of TMPRSS2 expression compared to the control group in 8 hours” value (from here on “Percent inhibition … in 8 hours”) ([3]; 0.04 μM) was 0%. For the same substance, the “Percent inhibition of TMPRSS2 expression compared to the control group in 24 hours” value (“Percent inhibition … in 24 hours” for short) ([3]; 0.04 μM) was 35%, the “Percent inhibition of TMPRSS2 expression compared to the control group in 48 hours” value (from here on “Percent inhibition … in 48 hours”) ([3]; 0.04 μM) was 46% and the “Percent inhibition … in 8 hours” value ([3]; 0.2 μM) was 0%. The “Percent inhibition … in 24 hours” value ([3]; 0.2 μM) was 57%, the “Percent inhibition … in 48 hours” value ([3]; 0.2 μM) was 71% and the “Percent inhibition … in 8 hours” value ([3]; 1 μM) was 6%. The “Percent inhibition … in 24 hours” value ([3]; 1 μM) was 66%, the “Percent inhibition … in 48 hours” value ([3]; 1 μM) was 77% and the “Percent inhibition … in 8 hours” value ([3]; 5.0 μM) was 0%. The “Percent inhibition … in 24 hours” value ([3]; 5.0 μM) was 67%, the “Percent inhibition … in 48 hours” value ([3]; 5.0 μM) was 76% and the TMPRSS2 expression ([3]; time course) was “reduced PSA and TMPRSS2 expression in the cells relative to the control set at the 24 hr and 48 hr time points”. The “Percent expression of AR” value ([4]; 0.04 μM) was 88%, the “Percent expression of AR” value ([4]; 0.2 μM) was 57% and the “Percent expression of AR” value ([4]; 1 μM) was 20%. The “Percent expression of AR” value ([4]; 5.0 μM) was 15%, the “Percent expression of AR in C4-2 cells cultured in complete medium” value (from here on “Percent expression of AR … in complete medium”) ([4]; 0.04 μM) was 48% and the “Percent expression of AR … in complete medium” value ([4]; 0.2 μM) was 13%. The “Percent expression of AR … in complete medium” value ([4]; 1 μM) was 8%, the “Percent expression of AR … in complete medium” value ([4]; 5.0 μM) was 8% and the “Proliferation (% untreated control)” value ([5]; CSS + DHT medium, 0.04 μM) was 111 % untreated control. The “Proliferation (% untreated control)” value ([5]; CSS + DHT medium, 0.2 μM) was 75 % untreated control, the “Proliferation (% untreated control)” value ([5]; CSS + DHT medium, 1 μM) was 49 % untreated control and the “Proliferation (% untreated control)” value ([5]; CSS + DHT medium, 5.0 μM) was 40 % untreated control. The “Proliferation (% untreated control)” value ([5]; complete medium, 0.04 μM) was 93 % untreated control, the “Proliferation (% untreated control)” value ([5]; complete medium, 0.2 μM) was 50 % untreated control and the “Proliferation (% untreated control)” value ([5]; complete medium, 1 μM) was 50 % untreated control. For the same substance, the “Proliferation (% untreated control)” value ([5]; complete medium, 5.0 μM) was 41 % untreated control, the “proliferation of C4-2B cells” value ([5]; complete medium or CSS+1 nM DHT) was “reduced proliferation of the cells in a dose dependent compared to the control” and the “Percent expression of AR compared to the control group in 8 hours” value (from here on “Percent expression of AR … in 8 hours”) ([6]; 0.04 μM) was 110%. For the same substance, the “Percent expression of AR compared to the control group in 24 hours” value (“Percent expression of AR … in 24 hours” for short) ([6]; 0.04 μM) was 47%, the “Percent expression of AR compared to the control group in 48 hours” value (from here on “Percent expression of AR … in 48 hours”) ([6]; 0.04 μM) was 33% and the “Percent expression of AR … in 8 hours” value ([6]; 0.2 μM) was 85%. The “Percent expression of AR … in 24 hours” value ([6]; 0.2 μM) was 18%, the “Percent expression of AR … in 48 hours” value ([6]; 0.2 μM) was 5% and the “Percent expression of AR … in 8 hours” value ([6]; 1 μM) was 68%. The “Percent expression of AR … in 24 hours” value ([6]; 1 μM) was 5%, the “Percent expression of AR … in 48 hours” value ([6]; 1 μM) was 6% and the “Percent expression of AR … in 8 hours” value ([6]; 5.0 μM) was 45%. The “Percent expression of AR … in 24 hours” value ([6]; 5.0 μM) was 4%, the “Percent expression of AR … in 48 hours” value ([6]; 5.0 μM) was 4% and the AR expression ([6]; C4-2B cells, 8, 24 and 48 hours) was “reduced AR expression in the cells relative to the control set”. For the same substance, the “Apoptosis (% untreated control)” value ([7]; CSS + DHT medium, 1.34 nM) was 121 % untreated control, the “Apoptosis (% untreated control)” value ([7]; CSS + DHT medium, 4.0 nM) was 113 % untreated control and the “Apoptosis (% untreated control)” value ([7]; CSS + DHT medium, 13.4 nM) was 172 % untreated control. The “Apoptosis (% untreated control)” value ([7]; CSS + DHT medium, 40 nM) was 518 % untreated control, the “Apoptosis (% untreated control)” value ([7]; complete medium, 1.34 nM) was 99 % untreated control and the “Apoptosis (% untreated control)” value ([7]; complete medium, 4.0 nM) was 127 % untreated control. For the same substance, the “Apoptosis (% untreated control)” value ([7]; complete medium, 13.4 nM) was 131 % untreated control, the “Apoptosis (% untreated control)” value ([7]; complete medium, 40 nM) was 566 % untreated control and the “apoptosis of 22RV1 cells” value ([7]; complete or CSS+DHT medium) was “increased apoptosis of the cells in a dose dependent compared to the control”. For the same substance, the “Percent inhibition of PSA expression” value ([8]; CSS + DHT medium, 0.04 μM) was 0%, the “Percent inhibition of PSA expression” value ([8]; CSS + DHT medium, 0.2 μM) was 17% and the “Percent inhibition of PSA expression” value ([8]; CSS + DHT medium, 1 μM) was 50%. The “Percent inhibition of PSA expression” value ([8]; CSS + DHT medium, 5.0 μM) was 61%, the “Percent inhibition of PSA expression” value ([8]; complete medium, 0.04 μM) was 56% and the “Percent inhibition of PSA expression” value ([8]; complete medium, 0.2 μM) was 84%. The “Percent inhibition of PSA expression” value ([8]; complete medium, 1 μM) was 89%, the “Percent inhibition of PSA expression” value ([8]; complete medium, 5.0 μM) was 92% and the “Percent expression of AR” value ([9]; CSS + DHT medium, 0.04 μM) was 55%. For the same substance, the “Percent expression of AR” value ([9]; CSS + DHT medium, 0.2 μM) was 31%, the “Percent expression of AR” value ([9]; CSS + DHT medium, 1 μM) was 15% and the “Percent expression of AR” value ([9]; CSS + DHT medium, 5.0 μM) was 13%. For the same substance, the “Percent expression of AR” value ([9]; complete medium, 0.04 μM) was 34%, the “Percent expression of AR” value ([9]; complete medium, 0.2 μM) was 15% and the “Percent expression of AR” value ([9]; complete medium, 1 μM) was 14%. For the same substance, the “Percent expression of AR” value ([9]; complete medium, 5.0 μM) was 14%.
